No end group written: not given here.
Tests used:
[1] = tested on: fully modified human tRNA^LYS3 anticodon stem and loop domain (modified ASL^LYS3); assay: Fluorescence titration of fluorescein-conjugated peptides with modified ASL^LYS3; type: binding; conditions: for specific recognition of the modifications of the ASLLys3: comparison of titration with modified and with unmodified ASL^LYS3; for binding to the modified ASL^LYS3 (fluorescence monitored): fluorescein-conjugated peptide titrated with modified ASL^LYS3
From the text: (§1) The sequences of the target ASLLys3 and that of control ASLs are shown. Peptides were selected against the ASLLys3 and tested against all three. The ASL^LYS3 contains the natural modified nucleosides, 5-methoxycarbonylmethyl-2-thiouridine-34 (mcm5s2U34), 2-methylthio-N6-threonylcarbamoyladenosine-37 (ms2t6A37), and pseudouridine-39 (Ψ39).
(§2) Peptides were selected by phage display methods to bind to the modified ASL^LYS3. Control peptides were selected for their lack of recognition. Each peptide is synthesized with a conjugated fluorescein as a reporter. Here control peptide #21 is titrated with the three ASLs and the fluorescence is monitored.
(§3) Peptides #6 and #17 were selected by phage display methods to bind to the modified ASL^LYS3. These peptides along with control peptide #21 were synthesized with a conjugated fluorescein as a reporter. Here the three peptides are titrated with the modified ASLLys3 and the fluorescence is monitored.

[2] = tested on: unmodified ASL^LYS3; assay: Fluorescence titration of fluorescein-conjugated peptides with unmodified ASL^LYS3; type: binding; conditions: fluorescein-conjugated peptide titrated with unmodified ASL^LYS3
From the text: as §1, §2
as §3, with “unmodified ASL^LYS3” for “modified ASLLys3”

[3] = tested on: Feline (FEA) cells; assay: Shear-loading of feline (FEA) cells with fluorescein-conjugated peptide: fluorescence microscopy and toxicity staining; type: cell-based; conditions: after 1, 2 and 3 days, at the concentrations used for loading
From the text: Feline (FEA) cells are “shear-loaded” with the peptide #6 that binds the modified ASLLys3. Fluorescein-conjugated, peptide #6 is located with fluorescence microscopy First row: Sham loaded cells. Second row: Peptide loaded. Third row: Peptide loaded at 40× magnification.

[4] = tested on: equine infectious anemia virus (EIAV); assay: Reverse transcriptase activity in EIAV infected feline (FEA) cells shear-loaded with peptide; type: cell-based
Procedure: (§4) EIAV is a lentivirus as is HIV, and as such utilizes the host cell tRNA^LYS3 for priming reverse transcription. EIAV infected feline (FEA) cells are “shear-loaded” with three concentrations (5, 10, 35) of peptide #6 that binds the modified ASL^LYS3 portion of HIV primer. Cells are sham loaded with phosphate buffered saline (PBS). The effect of the peptide on reverse transcriptase activity and on toxicity are determined after 1, 2 and 3 days.

[5] = tested on: EIAV infected feline (FEA) cells; assay: Toxicity by staining in EIAV infected feline (FEA) cells shear-loaded with peptide; type: cell-based
Procedure: as §4

| Sequence | specific recognition of the modifications of the ASLLys3 [1] | binding to the unmodified ASL^LYS3 (fluorescence monitored) [2] | binding to the modified ASL^LYS3 (fluorescence monitored) [1] | toxicity, determined by staining [3] | reverse transcriptase activity ([4]; EIAV infected FEA cells loaded with fluorescein-conjugated peptide, three concentrations (5, 10, 35), versus PBS sham loaded) | bioactivity in cells against reverse transcription ([4]; EIAV infected FEA cells, at days 2 and 3) | toxicity (staining of the cells) ([5]; high concentration) | toxicity (staining of the cells) ([5]; low and middle concentrations) |
| --- | --- | --- | --- | --- | --- | --- | --- | --- |
| PKAFQYGGRAVGGLW (hASL LYS3 binding peptide) [compound 7] | specifically recognizing the modifications |  |  |  |  |  |  |  |
| NGPECNAYMVRCRGYH (cysteine pairing not given here; also: fluorescein label, position not given here) [compound 17] |  | do not exhibit binding | bind |  |  |  |  |  |
| PAVASTSSLIIDGPF (also: fluorescein label, position not given here) [peptide #6] | specifically recognizing the modifications | do not exhibit binding | bind | not toxic | significantly reduced | significant bioactivity | only slightly toxic | not toxic |
